Tests used:
[1] = system: differentiated PC12 cells; assay: Suppression of apoptosis in differentiated PC12 cells after NGF withdrawal, Hoechst 33342 staining; format: cell-based, rat; settings: for Incidence of apoptosis (%): 24 hrs, NGF withdrawal, mean ± SEM
Protocol: (1) After growing rat adrenal pheochromocytoma PC12 cells (obtained by: ATCC; importer: Dainippon Pharmaceutical) with RPMI1640 containing 10 ml/l heat-inactivated horse serum and 5 ml/l heat-inactivated fetal calf serum, culturing was performed with RPMI1640 containing mouse β NGF (100 ng/ml), N2 supplement, and TIP (5 μg/ml transferrin, 5 μg/ml insulin, and 10 ng/ml progesterone). Differentiation to neuron-like cells was performed.
(2) Differentiated PC12 cells were washed with Neurobasal culture medium. After replacing the culture medium with RPMI1640 not containing β NGF, N2 supplement, and TIP, mouse β NGF antibodies (final concentration: 50 ng/ml) were added. By culturing for 24 hrs, apoptosis was induced.
(3) A PGE1 ethanol solution was added (final concentration:
0.01-1 μM) to fresh culture medium during medium replacement and culturing was performed for the same amount of time. As a negative control, a solvent (ethanol) alone was added in the same manner and culturing was performed for the same period of time. Apoptosis detection was performed by Hoechst 33342 staining (at 1 mM with a reaction in 2 minutes at room temperature) after fixation (room temperature for 30 mins) of cells with a 1% glutaraldehyde solution. Observation was made from 5 arbitrary visual fields using a fluorescence microscope. Total cell and apoptotic cells were counted, and incident of apoptosis was calculated.
(4) The values obtained were expressed as means±SEM. As for statistical analysis, a student's t-test (hereafter noted as a t-test) was used for two groups and Dunnet's test was used after one-way layout dimensional analysis (one-way ANOVA) for numerous groups; critical values for both were considered to be a significant difference below 5%.

[2] = system: rat cerebral cortical neurons; assay: Apoptosis induced by amyloid beta peptide in rat cerebral cortical neurons, Hoechst 33342; format: cell-based
Protocol: The cortex region of embryonic day 17 or 18 rat cerebrum was extracted on ice. Cells were dispersed using a neuron dispersal solution (Sumilon) after sectioning. Afterwards, cells were dispersed to a density of 1.5×10^5 cells/cm^2 in a culturing flask that was coated with polyethyleneimine beforehand. After 4 days of culturing, the following experiment was provided. Therefore, as the culture medium, Neurobasal medium (Gibco) adding with B27 supplement (1/50 volume), 2-mercaptoethanol (27.5 μM), L-glutamic acid (25 μM), and glutamine (0.5 mM) was used.
Amyloid beta peptide 25-35 (Aβ25-35) was dissolved in distilled water to a concentration of 1 mM, incubated for 1 week at about 37° C., and Aged-Aβ25-35 was prepared. The induction of apoptosis in neuron was performed by the replacement of the aforementioned culture medium (with the exception of L-glutamicacid) containing 10 μM Aged-Aβ25-35.
4) It was investigated that the suppressing effect of PGE1 on apoptosis induced by amyloid beta peptide. After dissolution of PGE1 in ethanol, when the aforementioned 2) Aged-Aβ25-35 was added to the culture medium, simultaneously PGE1 solution was added to it. The final concentration thereof was 1 μM.
Cells were washed with PBS (−) at 24 hrs after induction of apoptosis and fixed for 30 mins at room temperature using a 1% glutaraldehyde solution (in PBS). Next, cell were washed with PBS (−) two times and followed by incubation with 1 mM Hoechst 33342 solution (in PBS) for 2 mins. Afterwards, observation of nuclear chromatin morphology was conducted using a fluorescence microscope with 4 arbitrary visual fields. Normal cells and apoptotic cells (cell where chromatin fragmentation or condensation was appeared) were counted, and the ratio was calculated as the incidence of apoptosis. The n was 3.
6) The relationship between PGT inhibitors and apoptosis induced by amyloid beta peptide was investigated. BrCG, which is a PGT inhibitor, with a final concentration of 60 μM was added simultaneously with PGE1 but other manners were in accordance with the aforementioned ones in 1)-5).
It was investigated that the influence of PGT antisense on the inhibitory effect of PGE1 against apoptosis induced by amyloid beta peptide. PGT antisense was used as it is with regard to the oligonucleotide in Experiment 3. The addition concentration thereof was 1.5 μM. Incidence of apoptosis was performed in accordance with Experiment 5. Then was 3.
1) Drugs having an inhibitory activity against induction of apoptosis by amyloid beta peptide were investigated. After dissolving test drugs (PGE1, PGK1, PGK2, and bicyclo PGE2) in ethanol, when Aged-Aβ25-35 was added to the culture medium, simultaneously test drug solution were added to it. But other manners were in accordance with Experiment 5. Ratio of normal cells and apoptotic cells allowed calculation of the rate of inhibition of apoptosis induction.

[3] = target: T1, PGT (Rattus norvegicus, UniProt Q00910); assay: Uptake of tritium-labelled PGE1 into differentiated PC12 cells through PGT; format: cell-based; settings: tritium-labelled PGE1 0.1 μM, mean ± SEM
T1 construct: endogenous in cells; host or cells: differentiated PC12 cells
Protocol: 1) Differentiated PC12 cells and tritium-labelled PGE1 (added concentration: 0.1 μM) were subjected to 10 mins of incubation at 37° C. Afterwards, the cells were washed with ice-cold phosphate buffered saline containing 5 g/l of bovine serum albumin and next washed with ice-cold phosphate buffered saline. Then, radioactivity was measured. The amount of PGE1 uptake into PC12 cells was calculated.
2) Bromcresol green (hereinafter noted as “BrCG”), which is a PGT inhibitor, was placed together in the culture medium at the addition of PGE1. Afterwards, treatment was conducted in the same manner as mentioned in 1).
3) The antisense oligonucleotide specific to PGT cDNA was designed as follows:
Moreover, said antisense was thioate modified. Using Lipofectin (Gibco), PC12 underwent transfection during 2 days prior to the addition of PGE1. Afterwards, treatment was conducted in the same manner as mentioned in 1).

Amount of PGE1 uptake ([3]; 10 mins at 37° C., no BrCG (Table 3)): 73 ± 11 fmol/mg protein/10 mins | Amount of PGE1 uptake ([3]; no antisense (Table 4)): 78 ± 11 fmol/mg protein/10 mins
SMILES: CCCCC[C@H](O)/C=C/[C@H]1[C@H](O)CC(=O)[C@@H]1CCCCCCC(=O)O [PGE1, prostaglandin E1]
Incidence of apoptosis (%) ([1]; PGE1 0.01 μM): 21.3 ± 1.5% | Incidence of apoptosis (%) ([1]; PGE1 0.1 μM): 19.1 ± 8.1% | Effect on cell apoptosis (in words) ([1]; PGE1 1 μM): suppressed cell apoptosis | Incidence of apoptosis (%) ([1]; PGE1 1 μM): 17.1 ± 0.6% | Effect on apoptosis induced by amyloid beta peptide (in words) [2]: suppressed apoptosis inducted by amyloid beta peptide | Incidence of apoptosis (%) ([2]; Experiment 5, PGE1 1 μM, 10 μM Aged-Aβ25-35, 24 hrs, n 3): 23 ± 2 % | Incidence of apoptosis (%) ([2]; Experiment 6, PGE1, Aged-Aβ25-35, n 3): 23 ± 2 % | Inhibition of apoptosis induction (%) ([2]; Experiment 7, test drug added with Aged-Aβ25-35): 38.2%
